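Briefly, cells in 96-well plates were exposed to five compound concentrations for 48 h, and endpoints were estimated by linear interpolation. GI50 = concentration required for 50% inhibition of growth. TGI: total growth inhibition.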
Experiments:
Assay in all cases: NCI-60 cell line screen, 48 h
786-0 renal = test system: 786-0 renal
A498 renal = test system: A498 renal
A549 NSCLC = test system: A549 NSCLC
ACHN renal = test system: ACHN renal
BT-549 breast = test system: BT-549 breast
CAKI-1 renal = test system: CAKI-1 renal
CCRF-CEM leukemia = test system: CCRF-CEM leukemia
COLO 205 colon = test system: COLO 205 colon
DU-145 prostate = test system: DU-145 prostate
EKVX NSCLC = test system: EKVX NSCLC
HCC-2998 colon = test system: HCC-2998 colon
HCT-116 colon = test system: HCT-116 colon
HCT-15 colon = test system: HCT-15 colon
HL-60(TB) leukemia = test system: HL-60(TB) leukemia
HOP-62 NSCLC = test system: HOP-62 NSCLC
HOP-92 NSCLC = test system: HOP-92 NSCLC
HS 578T breast = test system: HS 578T breast
HT29 colon = test system: HT29 colon
IGROV1 ovarian = test system: IGROV1 ovarian
K-562 leukemia = test system: K-562 leukemia
KM12 colon = test system: KM12 colon
LOX IMVI melanoma = test system: LOX IMVI melanoma
M14 melanoma = test system: M14 melanoma
MALME-3M melanoma = test system: MALME-3M melanoma
MCF7 breast = test system: MCF7 breast
MDA-MB-231 breast = test system: MDA-MB-231 breast
MDA-MB-435 = test system: MDA-MB-435
MOLT-4 leukemia = test system: MOLT-4 leukemia
NCI-H226 lung = test system: NCI-H226 lung
NCI-H23 lung = test system: NCI-H23 lung
NCI-H460 lung = test system: NCI-H460 lung
NCI-H522 lung = test system: NCI-H522 lung
NCI/ADR-RES ovarian = test system: NCI/ADR-RES ovarian
OVCAR-3 ovarian = test system: OVCAR-3 ovarian
OVCAR-4 ovarian = test system: OVCAR-4 ovarian
OVCAR-5 ovarian = test system: OVCAR-5 ovarian
OVCAR-8 ovarian = test system: OVCAR-8 ovarian
PC-3 prostate = test system: PC-3 prostate
RPMI-8226 leukemia = test system: RPMI-8226 leukemia
RXF 393 renal = test system: RXF 393 renal
SF-268 CNS = test system: SF-268 CNS
SF-295 CNS = test system: SF-295 CNS
SF-539 CNS = test system: SF-539 CNS
SK-MEL-2 melanoma = test system: SK-MEL-2 melanoma
SK-MEL-28 melanoma = test system: SK-MEL-28 melanoma
SK-MEL-5 melanoma = test system: SK-MEL-5 melanoma
SK-OV-3 ovarian = test system: SK-OV-3 ovarian
SN12C renal = test system: SN12C renal
SNB-19 CNS = test system: SNB-19 CNS
SNB-75 CNS = test system: SNB-75 CNS
SR leukemia = test system: SR leukemia
SW-620 colon = test system: SW-620 colon
T-47D breast = test system: T-47D breast
TK-10 renal = test system: TK-10 renal
U251 CNS = test system: U251 CNS
UACC-257 melanoma = test system: UACC-257 melanoma
UACC-62 melanoma = test system: UACC-62 melanoma
UO-31 renal = test system: UO-31 renal

Compound: COc1ccc(C(O)c2cc3c(N)c(C(=O)Nc4ccc(Br)cc4)sc3nc2C)cc1 (stereo unspecified)
- GI50 (786-0 renal): 7.58 µM
- TGI (786-0 renal): 29.3 µM
- GI50 (A498 renal): 3.54 µM
- TGI (A498 renal): 19.8 µM
- GI50 (A549 NSCLC): 2.64 µM
- TGI (A549 NSCLC): 8.01 µM
- GI50 (ACHN renal): 3.93 µM
- TGI (ACHN renal): 16.4 µM
- GI50 (BT-549 breast): 3.02 µM
- TGI (BT-549 breast): 18.6 µM
- GI50 (CAKI-1 renal): 3.5 µM
- TGI (CAKI-1 renal): 14.2 µM
- GI50 (CCRF-CEM leukemia): 2.78 µM
- TGI (CCRF-CEM leukemia): > 100 µM
- GI50 (COLO 205 colon): 3.74 µM
- TGI (COLO 205 colon): 27 µM
- GI50 (DU-145 prostate): 2.52 µM
- TGI (DU-145 prostate): 6.18 µM
- GI50 (EKVX NSCLC): 3.29 µM
- TGI (EKVX NSCLC): 35 µM
- GI50 (HCC-2998 colon): 2.68 µM
- TGI (HCC-2998 colon): 10.4 µM
- GI50 (HCT-116 colon): 2.4 µM
- TGI (HCT-116 colon): 11.3 µM
- GI50 (HCT-15 colon): 1.57 µM
- TGI (HCT-15 colon): 13.4 µM
- GI50 (HL-60(TB) leukemia): 2.41 µM
- TGI (HL-60(TB) leukemia): 13.5 µM
- GI50 (HOP-62 NSCLC): 3.02 µM
- TGI (HOP-62 NSCLC): 11 µM
- GI50 (HOP-92 NSCLC): 2.74 µM
- TGI (HOP-92 NSCLC): 23 µM
- GI50 (HS 578T breast): 2.19 µM
- TGI (HS 578T breast): 5.63 µM
- GI50 (HT29 colon): 2.4 µM
- TGI (HT29 colon): 6.51 µM
- GI50 (IGROV1 ovarian): 3.37 µM
- TGI (IGROV1 ovarian): 26 µM
- GI50 (K-562 leukemia): 1.13 µM
- TGI (K-562 leukemia): > 100 µM
- GI50 (KM12 colon): 2.45 µM
- TGI (KM12 colon): 11.1 µM
- GI50 (LOX IMVI melanoma): 2.75 µM
- TGI (LOX IMVI melanoma): 11.6 µM
- GI50 (M14 melanoma): 2.35 µM
- TGI (M14 melanoma): 20 µM
- GI50 (MALME-3M melanoma): 2.43 µM
- TGI (MALME-3M melanoma): 13 µM
- GI50 (MCF7 breast): 1.63 µM
- TGI (MCF7 breast): 15.2 µM
- GI50 (MDA-MB-231 breast): 3.18 µM
- TGI (MDA-MB-231 breast): 16.9 µM
- GI50 (MDA-MB-435): 0.492 µM
- TGI (MDA-MB-435): 2.76 µM
- GI50 (MOLT-4 leukemia): 3.27 µM
- TGI (MOLT-4 leukemia): > 100 µM
- GI50 (NCI-H226 lung): 2.58 µM
- TGI (NCI-H226 lung): 9.16 µM
- GI50 (NCI-H23 lung): 6.11 µM
- TGI (NCI-H23 lung): 82.2 µM
- GI50 (NCI-H460 lung): 2.16 µM
- TGI (NCI-H460 lung): 4.66 µM
- GI50 (NCI-H522 lung): 2.62 µM
- TGI (NCI-H522 lung): 16 µM
- GI50 (NCI/ADR-RES ovarian): 3.38 µM
- TGI (NCI/ADR-RES ovarian): 19 µM
- GI50 (OVCAR-3 ovarian): 2.19 µM
- TGI (OVCAR-3 ovarian): 4.64 µM
- GI50 (OVCAR-4 ovarian): 2.01 µM
- TGI (OVCAR-4 ovarian): 6.57 µM
- GI50 (OVCAR-5 ovarian): 3.58 µM
- TGI (OVCAR-5 ovarian): 31.9 µM
- GI50 (OVCAR-8 ovarian): 3.15 µM
- TGI (OVCAR-8 ovarian): 12.9 µM
- GI50 (PC-3 prostate): 3.2 µM
- TGI (PC-3 prostate): 25 µM
- GI50 (RPMI-8226 leukemia): 2.32 µM
- TGI (RPMI-8226 leukemia): 19.7 µM
- GI50 (RXF 393 renal): 2.51 µM
- TGI (RXF 393 renal): 9.19 µM
- GI50 (SF-268 CNS): 3.74 µM
- TGI (SF-268 CNS): 18.5 µM
- GI50 (SF-295 CNS): 2.55 µM
- TGI (SF-295 CNS): 8.81 µM
- GI50 (SF-539 CNS): 2.08 µM
- TGI (SF-539 CNS): 4.98 µM
- GI50 (SK-MEL-2 melanoma): 7.69 µM
- TGI (SK-MEL-2 melanoma): 47.1 µM
- GI50 (SK-MEL-28 melanoma): 5.16 µM
- TGI (SK-MEL-28 melanoma): > 100 µM
- GI50 (SK-MEL-5 melanoma): 3.16 µM
- TGI (SK-MEL-5 melanoma): 11.4 µM
- GI50 (SK-OV-3 ovarian): 3.04 µM
- TGI (SK-OV-3 ovarian): 12.9 µM
- GI50 (SN12C renal): 3.66 µM
- TGI (SN12C renal): 17.3 µM
- GI50 (SNB-19 CNS): 3.7 µM
- TGI (SNB-19 CNS): 60.3 µM
- GI50 (SNB-75 CNS): 2.18 µM
- TGI (SNB-75 CNS): 6.22 µM
- GI50 (SR leukemia): 0.594 µM
- TGI (SR leukemia): > 100 µM
- GI50 (SW-620 colon): 3.37 µM
- TGI (SW-620 colon): 25.9 µM
- GI50 (T-47D breast): 3.14 µM
- TGI (T-47D breast): 39.7 µM
- GI50 (TK-10 renal): 8.18 µM
- TGI (TK-10 renal): 34.3 µM
- GI50 (U251 CNS): 2.5 µM
- TGI (U251 CNS): 11.2 µM
- GI50 (UACC-257 melanoma): 3.51 µM
- TGI (UACC-257 melanoma): 34.6 µM
- GI50 (UACC-62 melanoma): 2.49 µM
- TGI (UACC-62 melanoma): 29.1 µM
- GI50 (UO-31 renal): 4.22 µM
- TGI (UO-31 renal): 21.3 µM

Reference: PubChem BioAssay (NCI)
